In patent US20040242687A1, “Thrombus/thrombogenesis inhibitors” (priority 2001, published 2004):
“Also recorded” adds a separate entry of the source. Like-named read-outs stand apart in the source and are kept apart here.

Columns and labels:
[1] = test system: patients with transient cerebral ischemic attack (TIA) / cerebral infarction; details: for recurrence of TIA / onset or recurrence of cerebral infarction during administration: administration continued for 337 days, single patients, hydrochloride
Procedure: The present invention will be explained according to the following examples in more detail. However, the scope of the invention is not limited to these examples.
A person. They occurred transient cerebral ischemic attack (TIA). From three days after the onset, treatment with 160 mg/day of Cataclot (Ono Pharmaceutical Co., Ltd.) was started and it was continued for 2 weeks.
A person. They occurred TIA.
A person. They occurred TIA. From three days after the onset, treatment with 81 mg/day of Kids Bufferin (Lion Corporation) was started and this treatment was continued for about one month.
(§1) A person. They occurred cerebral infarction.
A person. They occurred cerebral infarction and, ten months after the occurrence of TIA.
as §1
A person. They occurred cerebral infarction. […] From that day of the onset of TIA, they were hospitalized for one week and subjected to intravenous drip containing 1 g of Nicholin H (Takeda Chemical Industries, Ltd.) and administration of 300 mg/day of Panaldine (Daiichi Pharmaceutical Co., Ltd.).
A person. They occurred cerebral infarction. […] They occurred TIA two years after the onset of cerebral infarction. From that day of the onset of TIA, administration of 200 mg/day of Panaldine (Daiichi Pharmaceutical Co., Ltd.) and, in addition, 162 mg/day of Kids Bufferin (Lion Corporation) was started.
A person. They occurred cerebral infarction. […] Immediately after the recurrence, they were treated with fluid for supplementation, urokinase and 300 mg/day of Panaldine (Daiichi Pharmaceutical Co., Ltd.).

[2] = test system: stroke, myocardial infarction and vascular death; details: 142 trials; cited from earlier work

| Structure (SMILES) | recurrence of TIA / onset or recurrence of cerebral infarction during administration ([1]; 75 mg/day) | recurrence of TIA / onset or recurrence of cerebral infarction during administration ([1]; 150 mg/day) | recurrence of TIA and cerebral infarction during administration ([1]; 150 mg/day, administration continued for 496 days, single patient) | recurrence of TIA / onset or recurrence of cerebral infarction during administration ([1]; 300 mg/day) | reduction ratio of odds concerning stroke, myocardial infarction and vascular death against the control group [2] |
| --- | --- | --- | --- | --- | --- |
| COc1cccc(CCc2ccccc2OCC(CN(C)C)OC(=O)CCC(=O)O)c1.Cl (racemic) [sarpogrelate hydrochloride, (±)-1-[O-[2-(m-methoxyphenyl)ethyl]phenoxy]-3-(dimethylamino)-2-propyl hydrogensuccinate hydrochloride] | neither recurrence of TIA nor onset of cerebral infarction was observed; also recorded: recurrence of TIA and cerebral infarction was not observed | neither recurrence of TIA nor onset of cerebral infarction was observed; also recorded: recurrence of TIA and cerebral infarction was not observed | recurrence of TIA and cerebral infarction was not observed | neither recurrence of TIA nor onset of cerebral infarction was observed; also recorded: recurrence of TIA and cerebral infarction was not observed | – |
| CC(=O)Oc1ccccc1C(=O)O [aspirin] | – | – | – | – | 25% |
